According to patent publication US11053204B2, “Pyrimidinyloxy benzene derivatives as herbicides” (FMC Corporation, priority 2015, dated 2021):

Tests used:
Format in all cases: in vivo
[1] = tested on: Italian ryegrass (Lolium multiflorum); assay: Test A preemergence, visual injury rating; conditions: for Plant response rating, Ryegrass, Italian: 31 g ai/ha, 0 to 100 scale, 0 no effect, 100 complete control; for Ryegrass, Italian plant response rating: 125 g ai/ha, 0 to 100 scale (0 no effect, 100 complete control)
Description: (§1) Seeds of plant species selected from barnyardgrass (Echinochloa crus-galli), kochia (Kochia scoparia), ragweed (common ragweed, Ambrosia elatior), Italian ryegrass (Lolium multiflorum), large (Lg) crabgrass (Digitaria sanguinalis), giant foxtail (Setaria faberii), morningglory (Ipomoea spp.), pigweed (Amaranthus retroflexus), velvetleaf (Abutilon theophrasti), wheat (Triticum aestivum), and corn (Zea mays) were planted into a blend of loam soil and sand and treated preemergence with a directed soil spray using test chemicals formulated in a non-phytotoxic solvent mixture which included a surfactant.
(§2) At the same time, plants selected from these crop and weed species and also blackgrass (Alopecurus myosuroides), and galium (catchweed bedstraw, Galium aparine) were planted in pots containing the same blend of loam soil and sand and treated with postemergence applications of test chemicals formulated in the same manner. Plants ranged in height from 2 to 10 cm and were in the one- to two-leaf stage for the postemergence treatment. Treated plants and untreated controls were maintained in a greenhouse for approximately 10 days, after which time all treated plants were compared to untreated controls and visually evaluated for injury. Plant response ratings, summarized in Table A, are based on a 0 to 100 scale where 0 is no effect and 100 is complete control. A dash (-) response means no test result.

[2] = tested on: barnyardgrass (Echinochloa crus-galli); assay: Test A preemergence, visual injury rating; conditions: for Plant response rating, Barnyardgrass: 31 g ai/ha, 0 to 100 scale, 0 no effect, 100 complete control; for Barnyardgrass plant response rating: 125 g ai/ha, 0 to 100 scale (0 no effect, 100 complete control)
Description: as §1, §2

[3] = tested on: giant foxtail (Setaria faberii); assay: Test A preemergence, visual injury rating; conditions: for Plant response rating, Foxtail, Giant: 31 g ai/ha, 0 to 100 scale, 0 no effect, 100 complete control; for Foxtail, Giant plant response rating: 125 g ai/ha, 0 to 100 scale (0 no effect, 100 complete control)
Description: as §1, §2

kochia (Kochia scoparia) [4] = assay: Test A preemergence, visual injury rating; conditions: for Plant response rating, Kochia: 31 g ai/ha, 0 to 100 scale, 0 no effect, 100 complete control; for Kochia plant response rating: 125 g ai/ha, 0 to 100 scale (0 no effect, 100 complete control)
Description: as §1, §2

[5] = tested on: pigweed (Amaranthus retroflexus); assay: Test A preemergence, visual injury rating; conditions: for Plant response rating, Pigweed: 31 g ai/ha, 0 to 100 scale, 0 no effect, 100 complete control; for Pigweed plant response rating: 125 g ai/ha, 0 to 100 scale (0 no effect, 100 complete control)
Description: as §1, §2

[6] = tested on: ragweed (common ragweed, Ambrosia elatior); assay: Test A preemergence, visual injury rating; conditions: for Plant response rating, Ragweed: 31 g ai/ha, 0 to 100 scale, 0 no effect, 100 complete control; for Ragweed plant response rating: 125 g ai/ha, 0 to 100 scale (0 no effect, 100 complete control)
Description: as §1, §2

[7] = tested on: Italian ryegrass (Lolium multiflorum); assay: Test A postemergence, visual injury rating; conditions: 0 is no effect, 100 is complete control; for Ryegrass, Italian plant response rating: 0 to 100 scale, approximately 10 days
Description: as §1, §2

[8] = tested on: barnyardgrass (Echinochloa crus-galli); assay: Test A postemergence, visual injury rating; conditions: 0 is no effect, 100 is complete control; for Barnyardgrass plant response rating: 0 to 100 scale, approximately 10 days
Description: as §1, §2

[9] = tested on: blackgrass (Alopecurus myosuroides); assay: Test A postemergence, visual injury rating; conditions: 0 is no effect, 100 is complete control; for Blackgrass plant response rating: 0 to 100 scale, approximately 10 days
Description: as §1, §2

corn (Zea mays) = assay: Test A postemergence, visual injury rating; conditions: 0 is no effect, 100 is complete control; for Corn plant response rating: 0 to 100 scale, approximately 10 days
Description: as §1, §2

[10] = tested on: galium (catchweed bedstraw, Galium aparine); assay: Test A postemergence, visual injury rating; conditions: 0 is no effect, 100 is complete control; for Galium plant response rating: 0 to 100 scale, approximately 10 days
Description: as §1, §2

[11] = tested on: giant foxtail (Setaria faberii); assay: Test A postemergence, visual injury rating; conditions: 0 is no effect, 100 is complete control; for Foxtail, Giant plant response rating: 0 to 100 scale, approximately 10 days
Description: as §1, §2

kochia (Kochia scoparia) [12] = assay: Test A postemergence, visual injury rating; conditions: 0 is no effect, 100 is complete control; for Kochia plant response rating: 0 to 100 scale, approximately 10 days
Description: as §1, §2

[13] = tested on: pigweed (Amaranthus retroflexus); assay: Test A postemergence, visual injury rating; conditions: 0 is no effect, 100 is complete control; for Pigweed plant response rating: 0 to 100 scale, approximately 10 days
Description: as §1, §2

[14] = tested on: ragweed (common ragweed, Ambrosia elatior); assay: Test A postemergence, visual injury rating; conditions: 0 is no effect, 100 is complete control; for Ragweed plant response rating: 0 to 100 scale, approximately 10 days
Description: as §1, §2

[15] = tested on: wheat (Triticum aestivum); assay: Test A postemergence, visual injury rating; conditions: 0 is no effect, 100 is complete control; for Wheat plant response rating: 0 to 100 scale, approximately 10 days
Description: as §1, §2

[16] = tested on: barnyardgrass (Echinochloa crus-galli); assay: Test B flooded paddy test, plant response rating; conditions: 250 g ai/ha; Flood; scale of 0 to 100 where 0 is no effect and 100 is complete control; 13 to 15 days
Description: (§3) At time of treatment, test pots were flooded to 3 cm above the soil surface, treated by application of test compounds directly to the paddy water, and then maintained at that water depth for the duration of the test. Treated plants and controls were maintained in a greenhouse for 13 to 15 days, after which time all species were compared to controls and visually evaluated. […] A dash (-) response means no test result.

[17] = tested on: ducksalad (Heteranthera limosa); assay: Test B flooded paddy test, plant response rating; conditions: 250 g ai/ha; Flood; scale of 0 to 100 where 0 is no effect and 100 is complete control; 13 to 15 days
Description: as §3

rice (Oryza sativa) = assay: Test B flooded paddy test, plant response rating; conditions: 250 g ai/ha; Flood; scale of 0 to 100 where 0 is no effect and 100 is complete control; 13 to 15 days
Description: as §3

[18] = tested on: sedge, umbrella (small-flower umbrella sedge, Cyperus difformis); assay: Test B flooded paddy test, plant response rating; conditions: 250 g ai/ha; Flood; scale of 0 to 100 where 0 is no effect and 100 is complete control; 13 to 15 days
Description: as §3

| SMILES | Plant response rating, Ryegrass, Italian [1] | Ryegrass, Italian plant response rating [1] | Plant response rating, Barnyardgrass [2] | Barnyardgrass plant response rating [2] | Plant response rating, Foxtail, Giant [3] | Foxtail, Giant plant response rating [3] | Plant response rating, Kochia (kochia (Kochia scoparia) [4]) | Kochia plant response rating (kochia (Kochia scoparia) [4]) | Plant response rating, Pigweed [5] | Pigweed plant response rating [5] | Plant response rating, Ragweed [6] | Ragweed plant response rating [6] | Ryegrass, Italian plant response rating ([7]; 31 g ai/ha) | Barnyardgrass plant response rating ([8]; 31 g ai/ha) | Blackgrass plant response rating ([9]; 31 g ai/ha) | Corn plant response rating (corn (Zea mays); 31 g ai/ha) | Galium plant response rating ([10]; 31 g ai/ha) | Foxtail, Giant plant response rating ([11]; 31 g ai/ha) | Kochia plant response rating (kochia (Kochia scoparia) [12]; 31 g ai/ha) | Pigweed plant response rating ([13]; 31 g ai/ha) | further results |
| --- | --- | --- | --- | --- | --- | --- | --- | --- | --- | --- | --- | --- | --- | --- | --- | --- | --- | --- | --- | --- | --- |
| CN(CCC(F)(F)F)C(=O)c1c(Br)cccc1Oc1ncc(Cl)cn1 [Compound 19] | 0 | 0 | 0 | 0 | 0 | 0 | 0 | 20 | 0 | 20 | 0 | 0 | 0 | 0 | 0 | 0 | 0 | 0 | 0 | 10 | Ryegrass, Italian plant response rating (0 to 100 scale) ([7]; 125 g ai/ha): 0; Barnyardgrass plant response rating (0 to 100 scale) ([8]; 125 g ai/ha): 0; Blackgrass plant response rating (0 to 100 scale) ([9]; 125 g ai/ha): 0; Corn plant response rating (0 to 100 scale) (corn (Zea mays); 125 g ai/ha): 0; Galium plant response rating (0 to 100 scale) ([10]; 125 g ai/ha): 0; Foxtail, Giant plant response rating (0 to 100 scale) ([11]; 125 g ai/ha): 0; Kochia plant response rating (0 to 100 scale) (kochia (Kochia scoparia) [12]; 125 g ai/ha): 0; Pigweed plant response rating (0 to 100 scale) ([13]; 125 g ai/ha): 10; Ragweed plant response rating ([14]; 31 g ai/ha): 0; Ragweed plant response rating (0 to 100 scale) ([14]; 125 g ai/ha): 0; Wheat plant response rating ([15]; 31 g ai/ha): 0; Wheat plant response rating (0 to 100 scale) ([15]; 125 g ai/ha): 0; Plant response rating, Barnyardgrass [16]: 0; Plant response rating, Ducksalad [17]: 0; Plant response rating, Rice (rice (Oryza sativa)): 0; Plant response rating, Sedge, Umbrella [18]: 0 |
| O=C(NCCC(F)(F)F)c1c(Br)cccc1Oc1ncc(Cl)cn1 [Compound 93] | 0 | 0 | 0 | 0 | 0 | 0 | 0 | 0 | 0 | 0 | 0 | 0 | 0 | 0 | 0 | 0 | 0 | 0 | 0 | 0 | Ryegrass, Italian plant response rating ([7]; 125 g ai/ha): 0; Barnyardgrass plant response rating ([8]; 125 g ai/ha): 0; Blackgrass plant response rating ([9]; 125 g ai/ha): 0; Corn plant response rating (corn (Zea mays); 125 g ai/ha): 0; Galium plant response rating ([10]; 125 g ai/ha): 0; Foxtail, Giant plant response rating ([11]; 125 g ai/ha): 0; Kochia plant response rating (kochia (Kochia scoparia) [12]; 125 g ai/ha): 0; Pigweed plant response rating ([13]; 125 g ai/ha): 0; Ragweed plant response rating ([14]; 31 g ai/ha): 0; Ragweed plant response rating ([14]; 125 g ai/ha): 0; Wheat plant response rating ([15]; 31 g ai/ha): 0; Wheat plant response rating ([15]; 125 g ai/ha): 0; Plant response rating, Barnyardgrass [16]: 0; Plant response rating, Ducksalad [17]: 0; Plant response rating, Rice (rice (Oryza sativa)): 0; Plant response rating, Sedge, Umbrella [18]: 0 |
